Test results reported in ChEMBL document CHEMBL3046460, “Preparation of Dinotefuran Related Compounds and Agonistic Action on SAD2 Hybrid Nicotinic Acetylcholine Receptors Expressed in Xenopus laevis Oocytes” (J Pestic Sci, 2002).

experiment: Agonist activity at Drosophila melanogaster SAD/chicken beta2 nAChR expressed in Xenopus laevis oocytes assessed as inward current by two-electrode voltageclamp technique; type: cell-based

Structure (SMILES)	EC50 [µM]
O=[N+]([O-])/N=C1\NCCN1CC1CCOC1 (centres undefined)	148
CC(=O)OCC[N+](C)(C)C [ACETYLCHOLINE]	20
CN/C(=N/CC1CCOC1)N[N+](=O)[O-] (centres undefined) [DINOTEFURAN]	224
O=[N+]([O-])/N=C1\NCCN1Cc1ccc(Cl)nc1 [IMIDACLOPRID]	2.82
